Laboratory results published in PMC6213206, “Cyclopropane-Containing Fatty Acids from the Marine Bacterium Labrenzia sp. 011 with Antimicrobial and GPR84 Activity” (Marine Drugs, 2018).

Key:
human GPR84 [1] = molecular target: T1, human GPR84 (Homo sapiens, UniProt Q9NQS5); experiment: cAMP accumulation assay in CHO cells expressing human GPR84; type: cell-based; set-up: Emax: dose or concentration left out as unconfirmed; conditions: for activity in cAMP assay (in words): Gi-mediated signaling; for cAMP Assay percent receptor activation: at 100 μM, forskolin 10 μM; for EC50: read-out: cAMP Assay EC50 ± SD
T1 construct: CHO-hGPR84)
T1 sequence (Q9NQS5 whole entry): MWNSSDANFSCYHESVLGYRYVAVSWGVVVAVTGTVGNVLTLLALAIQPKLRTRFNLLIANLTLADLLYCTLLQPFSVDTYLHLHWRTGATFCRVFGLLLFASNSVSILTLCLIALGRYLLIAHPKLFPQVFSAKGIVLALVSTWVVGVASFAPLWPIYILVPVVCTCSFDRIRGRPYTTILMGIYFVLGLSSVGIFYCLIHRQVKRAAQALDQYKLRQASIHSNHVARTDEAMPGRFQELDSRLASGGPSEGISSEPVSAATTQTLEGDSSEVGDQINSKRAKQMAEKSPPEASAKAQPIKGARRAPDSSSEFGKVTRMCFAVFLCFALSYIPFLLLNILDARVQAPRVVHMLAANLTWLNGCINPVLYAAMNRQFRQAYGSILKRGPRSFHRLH
Description: (§1) cAMP accumulation assays determined the potency of the test compounds to inhibit forskolin-induced cAMP accumulation in Chinese hamster ovary (CHO) cells, stably expressing human GPR84, whereas the β-arrestin recruitment assays used the enzyme complementation technology.
(§2) The recombinant CHO cell line expressing the human GPR84 (CHO-hGPR84) with a β-galactosidase fragment and β-arrestin containing the complementary fragment of the enzyme was purchased from DiscoverX (Fremont, CA, USA). This cell line was used for the β-arrestin recruitment assays as well as for cAMP accumulation assays. The CHO-hGPR84 cells were cultured in F12 medium supplemented with 10% FCS, 100 units/mL penicillin G, 100 μg/mL streptomycin, 800 μg/mL G 418, 300 μg/mL hygromycin B, and 1% ultraglutamin (Invitrogen, Carlsbad, CA or Sigma-Aldrich, St. Louis, MO, USA). Stock solutions of compounds were prepared in DMSO (final DMSO concentration: 1%). Data were analyzed using Graph Pad Prism version 6.0 (San Diego, CA, USA). Concentration-response data were fitted by nonlinear regression to estimate EC50 values.
cAMP assays were performed as previously described. CHO cells overexpressing the human GPR84 were stimulated with forskolin (10 μM) in the absence (control) or presence of test compound for 15 min. The reaction was stopped by the addition of hot (90 °C) lysis solution containing 4 mM EDTA and 0.01% Triton X-100 in water. cAMP levels were quantified by a radioactive assay using [³H]cAMP (Perkin-Elmer, Rodgau, Germany). The forskolin-induced change in cAMP concentration in the presence of the test compound was expressed as a percentage of the response to forskolin in the absence of agonist (% of control). Three independent experiments, each in duplicates were performed.

human GPR84 [2] = molecular target: T1, human GPR84; experiment: β-arrestin recruitment assay (β-galactosidase enzyme complementation) in CHO-hGPR84 cells; type: cell-based; conditions: for EC50: n = 5, read-out: β-Arrestin Assay EC50 ± SD; for Emax: relative to maximal effect of full agonist embelin (10 μM) = 100%, read-out: β-Arrestin Assay Efficacy (Emax)
Description: as §1
as §2, with “The CHO-hGPR84 cells were cultured in F12 medium supplemented with 10% FCS, 100 units/mL penicillin G, 100 μg/mL streptomycin, 800 μg/mL G 418, 300 μg/mL hygromycin B, and 1% ultraglutamin (Invitrogen, Carlsbad, CA or Sigma-Aldrich, St. Louis, MO, USA).” left out
β-arrestin assays were performed as previously described. Briefly, CHO cells expressing the human GPR84 with a β-galactosidase fragment and β-arrestin containing the complementary fragment of the enzyme were incubated with a series of compound dilutions (in DMSO, final DMSO concentration: 1%) for 90 min before adding the detection reagent (DiscoverX®, Fremont, CA, USA). After 60 min of incubation at room temperature the luminescence was measured using an NXT plate reader (Perkin-Elmer, Rodgau, Germany). Three to five independent experiments were performed, each in duplicates.

Escherichia coli DSM 498 = experiment: disc diffusion assay; type: cell-based; conditions: DSM498, 50 μg per disc, read-out: growth inhibition zone
[3] = test system: Escherichia coli I-11276b; experiment: disc diffusion assay, multidrug-resistant pathogen; type: cell-based; conditions: I11276B; Escherichia coli I-11276b (multidrug-resistant); 4 μg per disc; read-out: growth inhibition zone
Procedure: (§3) Compounds 1 and 2 were tested against a range of microorganisms, namely the Gram-positive bacterium Bacillus megaterium DSM 32, the Gram-negative bacterium Escherichia coli JM 83 and Pseudoroseovarius crassostreae DSM 16950^T; the fungal organisms utilized were Eurotium rubrum DSM 62631, Microbotryum violaceum MB#110229, and Mycotypha microspora MB#271115. Tests were performed according to Reference. 50 μg of pure compounds or positive controls were taken from a solution of 1 mg/mL and applied on sterile paper discs on agar plates of the corresponding medium for each test organism. Multidrug-resistant pathogens Escherichia coli I-11276b, MRSA LT-1338, MRSA LT-1334 were tested with 4 μg of compound 2 in each disc. Thereafter, suspensions of the organisms were sprayed on the agar and incubated. Miconazole and streptomycin were used as positive controls. Inhibition zones were measured from the edge of the disc to the end of the area free of growth. Only total inhibition (>1 mm) was considered as a positive result.

MRSA LT-1338 = experiment: disc diffusion assay, multidrug-resistant pathogen; type: cell-based; conditions: Staphylococcus aureus; MRSA LT-1338 (multidrug-resistant); 4 μg per disc; read-out: growth inhibition zone
Procedure: as §3

MRSA LT-1334 = experiment: disc diffusion assay, multidrug-resistant pathogen; type: cell-based; conditions: Staphylococcus aureus; MRSA LT-1334 (multidrug-resistant); 4 μg per disc; read-out: growth inhibition zone
Procedure: as §3

[4] = test system: Bacillus megaterium DSM 32; experiment: disc diffusion assay; type: cell-based; conditions: Priestia megaterium, DSM32, 50 μg per disc, read-out: growth inhibition zone
Procedure: as §3

[5] = test system: Pseudoroseovarius crassostreae DSM 16950T; experiment: disc diffusion assay; type: cell-based; conditions: Aliiroseovarius crassostreae, DSM16950T, 50 μg per disc, read-out: growth inhibition zone
Procedure: as §3

[6] = test system: Mycotypha microspora MB#271115; experiment: disc diffusion assay; type: cell-based; conditions: 50 μg per disc, read-out: growth inhibition zone
Procedure: as §3

[7] = test system: Eurotium rubrum DSM 62631; experiment: disc diffusion assay; type: cell-based; conditions: for zone of inhibition at 50 µg/disc: Aspergillus ruber, DSM62631, 50 μg per disc, read-out: growth inhibition zone
Procedure: as §3

[8] = test system: Microbotryum violaceum MB#110229; experiment: disc diffusion assay; type: cell-based; conditions: 50 μg per disc, read-out: growth inhibition zone
Procedure: as §3

human GPR84 [9] = molecular target: T1, human GPR84; set-up: method as in PMID 28406627; conditions: relative to maximal effect of full agonist decanoic acid (100 μM) = 100%; cited from earlier work

SMILES	cAMP Assay percent receptor activation (human GPR84 [1]) [%]	EC50 (human GPR84 [1]) [µM]	EC50 (human GPR84 [2]) [nM]	Emax (human GPR84 [2]) [%]	activity in cAMP assay (in words) (human GPR84 [1])	zone of inhibition at 50 µg/disc (Escherichia coli DSM 498) [mm]	zone of inhibition at 50 µg/disc [4] [mm]	zone of inhibition at 50 µg/disc [5] [mm]	zone of inhibition at 50 µg/disc [6] [mm]	zone of inhibition at 50 µg/disc [7] [mm]	zone of inhibition at 50 µg/disc [8] [mm]	also measured
Clc1ccc(COC(Cn2ccnc2)c2ccc(Cl)cc2Cl)c(Cl)c1 (stereo not shown) [Miconazole, reference compound]									9	8	6	
CCCCCCCCCCCC(=O)O [Dodecanoic acid, reference compound]		8.87 ± 4.46	2840 ± 540	95								Emax (human GPR84 [1]; CHO, read-out: cAMP Assay Efficacy (Emax)): 94%
CCCCCCCCCC(=O)O [Decanoic acid]												cAMP Assay Efficacy (Emax) (human GPR84 [9]): 100% [26]
[H]/N=C(/N)N[C@H]1[C@H](O)[C@@H](O)[C@H](O[C@@H]2O[C@@H](C)[C@](O)(C=O)[C@H]2O[C@@H]2O[C@@H](CO)[C@H](O)[C@@H](O)[C@@H]2NC)[C@@H](N/C(N)=N\[H])[C@@H]1O [Streptomycin, reference compound]						6	9	6				

Continued, in another order:

cAMP Assay percent receptor activation (human GPR84 [1]) [%]	EC50 (human GPR84 [1]) [µM]	EC50 (human GPR84 [2]) [nM]	Emax (human GPR84 [2]) [%]	SMILES	activity in cAMP assay (in words) (human GPR84 [1])	zone of inhibition at 50 µg/disc (Escherichia coli DSM 498) [mm]	zone of inhibition at 50 µg/disc [4] [mm]	zone of inhibition at 50 µg/disc [5] [mm]	zone of inhibition at 50 µg/disc [6] [mm]	zone of inhibition at 50 µg/disc [7] [mm]	zone of inhibition at 50 µg/disc [8] [mm]	also measured
24	> 100	114 ± 135	54	CCCCCC[C@H]1C[C@H]1CC(=O)O (relative stereo) [Compound 2, cis-2-(2-hexylcyclopropyl)-acetic acid]	did neither induce nor block Gi-mediated signaling	3	10	5	6	10	10	potency in β-arrestin assay relative to dodecanoic acid (human GPR84 [2]; fold more potent than dodecanoic acid (EC50 = 2.84 μM)): 25 fold; zone of inhibition at 4 µg/disc [3]: 2 mm; zone of inhibition at 4 µg/disc (MRSA LT-1338): 2 mm; zone of inhibition at 4 µg/disc (MRSA LT-1334): 3 mm
0	> 100	> 30000		CCCCCC[C@H]1C[C@H]1CCCC(=O)O (relative stereo) [Compound 1, cis-4-(2-hexylcyclopropyl)-butanoic acid]	inactive	2		5	3		8	activity in β-arrestin assay (in words) (human GPR84 [2]): inactive; β-Arrestin Assay percent receptor activation (human GPR84 [2]; at 30 μM): 17%; growth inhibition zone ([7]; 50 μg per disc): devoid of activity
